We go through 39 substances from patent US20240384268A1, “Oligonucleotides” (Hudson Institute of Medical Research, priority 2021, published 2024).

In the oligonucleotide strings, read from the 5' end, every base follows the letter of its sugar. An asterisk marks phosphorothioate; unmarked linkages are phosphodiester. Other units and linkages are bracketed, terminal groups are in braces. A string of capitals states the bases alone. d = 2'-deoxy (DNA); m = 2'-O-methyl

In one data set the target is cGAS (Homo sapiens, UniProt Q8N884). The data set is described as follows: ISD70-driven IP-10 (and IFN-β) production in THP-1 cells, ELISA. In kind it is cell-based. Also on record: endogenous in cells; host or cells: THP-1 (undifferentiated). The following applies: ASO 100 nM; relative to ISD70 only, given as fraction. In general terms: ELISA stands for enzyme-linked immunosorbent assay.
Chain of cGAS (Q8N884 whole entry): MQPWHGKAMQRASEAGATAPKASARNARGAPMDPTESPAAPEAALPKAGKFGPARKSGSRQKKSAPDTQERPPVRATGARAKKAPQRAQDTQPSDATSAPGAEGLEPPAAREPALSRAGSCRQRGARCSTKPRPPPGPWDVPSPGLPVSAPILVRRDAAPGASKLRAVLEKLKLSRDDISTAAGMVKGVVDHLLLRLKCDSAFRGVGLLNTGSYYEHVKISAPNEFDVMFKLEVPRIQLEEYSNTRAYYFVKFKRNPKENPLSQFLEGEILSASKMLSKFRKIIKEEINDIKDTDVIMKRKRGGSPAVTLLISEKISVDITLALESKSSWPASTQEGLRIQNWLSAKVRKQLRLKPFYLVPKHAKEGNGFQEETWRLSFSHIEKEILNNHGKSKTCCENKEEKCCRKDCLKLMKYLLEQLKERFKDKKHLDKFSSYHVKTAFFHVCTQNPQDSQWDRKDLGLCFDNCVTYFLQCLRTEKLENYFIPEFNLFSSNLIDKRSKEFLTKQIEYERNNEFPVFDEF
With “GGAGGTCTTGGCTTCG (antisense; LNA-modified, pattern not given here) [MB21D1-526 LNA V1]”, the “cGAS 100 nM (averaged IP-10 level relative to ISD70 condition)” value turned out to be 1.061. Regarding “GGCTCGGCTTGCCTAC (antisense; LNA-modified, pattern not given here) [CAMSAP1-5594 LNA V1]”, the “cGAS 100 nM (averaged IP-10 level relative to ISD70 condition)” value was 0.761. On the same count and under the same terms, for “GGTCATTACAATAGCT (antisense; LNA-modified, pattern not given here) [HPRT LNA-475 KL]” the value was 0.751; for “GGTCTTGGCTTCGTGG (antisense; LNA-modified, pattern not given here) [MB21D1-523 LNA V1]”, 0.648; for “GTCAAGGGCATATCCT (antisense; LNA-modified, pattern not given here) [HPRT LNA-732 KL]”, 0.636.

Consider “GTCCTTGCACGTGGCT (antisense; LNA-modified, pattern not given here) [EGFR-1015 LNA V1]”, for which the “cGAS 100 nM (averaged IP-10 level relative to ISD70 condition)” value amounted to 0.645. With “GTCTCTGGAGCTTCCT (antisense; LNA-modified, pattern not given here) [CAMSAP1-2456 LNA V1]”, the “cGAS 100 nM (averaged IP-10 level relative to ISD70 condition)” value is listed as 0.627.

For the substance “GTCTTCATCGGCCCTG (antisense; LNA-modified, pattern not given here) [CAMSAP1-2113 LNA V1]”, the “cGAS 100 nM (averaged IP-10 level relative to ISD70 condition)” value turned out to be 0.809. Same read-out and setting: for “GTGATCTTGACATGCT (antisense; LNA-modified, pattern not given here) [EGFR-2790 LNA KL]” the value was 0.661; for “GTGATGGCCTCCCATC (antisense; LNA-modified, pattern not given here) [HPRT LNA-333 V1]”, 0.724; for “TACTTTCCGAGGTGTC (antisense; LNA-modified, pattern not given here) [CAMSAP1-1739 LNA KL]”, 0.638. The same measure, in the same setting: then “TCCACAATCAAGACAT (antisense; LNA-modified, pattern not given here) [HPRT LNA-551 KL]”, with 0.601.

“TCCATACCCAAGGCAT (antisense; LNA-modified, pattern not given here) [CTNN2B-2446 LNA V1]”: the “cGAS 100 nM (averaged IP-10 level relative to ISD70 condition)” value is listed as 0.589. The same measure, in the same setting: then “TCCGCCCAAAGGGAAC (antisense; LNA-modified, pattern not given here) [HPRT LNA-1027 KL]”, with 0.860; and “TCCTTGCACGTGGCTT (antisense; LNA-modified, pattern not given here) [EGFR-1014 LNA V1]”, with 0.591; and “TCGTGGGGTCCTTTTC (antisense; LNA-modified, pattern not given here) [HPRT LNA-660 V1]”, with 0.729. As to “TCTTCATCGGCCCTGC (antisense; LNA-modified, pattern not given here) [CAMSAP1-2112 LNA V1]”, the “cGAS 100 nM (averaged IP-10 level relative to ISD70 condition)” value was found to be 0.548. As for “TCTTGGCTTCGTGGAG (antisense; LNA-modified, pattern not given here) [MB21D1-521 LNA V1]”, the “cGAS 100 nM (averaged IP-10 level relative to ISD70 condition)” value turned out to be 0.693. The same measure, in the same setting: for “TGACAAAGATTCACTG (antisense; LNA-modified, pattern not given here) [HPRT LNA-1353 KL]” the value was 0.887; for “TGACTGTCTTGAGGGT (antisense; LNA-modified, pattern not given here) [MB21D1-1483 LNA KL]”, 0.747; for “TGGTCCACAACCCCTT (antisense; LNA-modified, pattern not given here) [MB21D1-697 LNA V1]”, 0.935. The same measure, in the same setting: for “TGGTGGCCACCCATCT (antisense; LNA-modified, pattern not given here) [CTNN2B-2479 LNA V1]” the value was 0.830; for “TGTCCTTGCACGTGGC (antisense; LNA-modified, pattern not given here) [EGFR-1016 LNA V1]”, 0.678. On the same count and under the same terms, for “TGTCTGGAAGCTTCCT (antisense; LNA-modified, pattern not given here) [CTNN2B-808 LNA V1]” the value was 0.617; for “TTCAGGCGCTGCCTTG (antisense; LNA-modified, pattern not given here) [CAMSAP1-2709 LNA V1]”, 0.709.

Staying with this data set, now noted: THP-1; 100 nM ASO overnight, then ISD70 2.5 μg/ml 7-8 h; percentage of ISD70 only.
As for “mA*mA*mA*mG*mC*A*G*T*C*T*C*C*A*T*G*mU*mC*mC*mC*mA (mA*mA*mA*mG*mC*dA*dG*dT*dC*dT*dC*dC*dA*dT*dG*mU*mC*mC*mC*mA; antisense) [[CDKN2B-AS1]2237]”, the “cGAS-100 nM: averaged IP-10 levels relative to ISD70” value is recorded as 70.95%.

As for “mA*mA*mG*mC*mA*G*T*C*T*C*C*A*T*G*T*mC*mC*mC*mA*mG (mA*mA*mG*mC*mA*dG*dT*dC*dT*dC*dC*dA*dT*dG*dT*mC*mC*mC*mA*mG; antisense) [[CDKN2B-AS1]2236]”, the “cGAS-100 nM: averaged IP-10 levels relative to ISD70” value turned out to be 107.34%. Still for that read-out and setting: then “mA*mG*mC*mA*mG*T*C*T*C*C*A*T*G*T*C*mC*mC*mA*mG*mG (AGCAGTCTCCATGTCCCAGG; antisense; sugars from the 5' end m5 d10 m5, all phosphorothioate, methylation of C not given here) [[CDKN2B-AS1]2235]”, with 28.75%; and “mA*mG*mU*mC*mU*C*C*A*T*G*T*C*C*C*A*mG*mG*mC*mC*mU (mA*mG*mU*mC*mU*dC*dC*dA*dT*dG*dT*dC*dC*dC*dA*mG*mG*mC*mC*mU; antisense) [[CDKN2B-AS1]2232]”, with 88.13%; and “mA*mG*mU*mG*mG*C*A*C*A*T*A*C*C*A*C*mA*mC*mC*mC*mU (AGUGGCACATACCACACCCU; antisense; sugars from the 5' end m5 d10 m5, all phosphorothioate, methylation of C not given here) [[CDKN2B-AS1]495]”, with 59.69%. With “mA*mU*mU*mU*mC*C*A*C*A*T*G*C*C*C*A*mG*mU*mG*mU*mU (AUUUCCACATGCCCAGUGUU; antisense; sugars from the 5' end m5 d10 m5, all phosphorothioate, methylation of C not given here) [[CDKN2B-AS1]626]”, the “cGAS-100 nM: averaged IP-10 levels relative to ISD70” value was found to be 52.58%.

With “mC*mA*mG*mU*mC*T*C*C*A*T*G*T*C*C*C*mA*mG*mG*mC*mC (mC*mA*mG*mU*mC*dT*dC*dC*dA*dT*dG*dT*dC*dC*dC*mA*mG*mG*mC*mC; antisense) [[CDKN2B-AS1]2233]”, the “cGAS-100 nM: averaged IP-10 levels relative to ISD70” value is recorded as 75.92%. The same measure, in the same setting: then “mC*mA*mG*mU*mG*T*T*T*T*T*A*A*T*T*T*mU*mG*mU*mA*mG (mC*mA*mG*mU*mG*dT*dT*dT*dT*dT*dA*dA*dT*dT*dT*mU*mG*mU*mA*mG; antisense) [[CDKN2B-AS1]613]”, with 60.94%; and “mC*mU*mU*mG*mU*G*A*A*A*A*G*A*T*T*A*mU*mC*mU*mU*mC (mC*mU*mU*mG*mU*dG*dA*dA*dA*dA*dG*dA*dT*dT*dA*mU*mC*mU*mU*mC) [[CDKN2B-AS1]2139]”, with 33.75%. In the case of “mG*mC*mA*mG*mU*C*T*C*C*A*T*G*T*C*C*mC*mA*mG*mG*mC (GCAGUCTCCATGTCCCAGGC; antisense; sugars from the 5' end m5 d10 m5, all phosphorothioate, methylation of C not given here) [[CDKN2B-AS1]2234]”, the “cGAS-100 nM: averaged IP-10 levels relative to ISD70” value was 10.02%. On the same count and under the same terms, for “mG*mU*mC*mU*mC*C*A*T*G*T*C*C*C*A*G*mG*mC*mC*mU*mC (mG*mU*mC*mU*mC*dC*dA*dT*dG*dT*dC*dC*dC*dA*dG*mG*mC*mC*mU*mC) [[CDKN2B;AS1]2231]” the value was 84.16%; for “mG*mU*mG*mU*mC*C*T*T*C*A*T*G*C*T*T*mU*mG*mG*mA*mU (GUGUCCTTCATGCTTUGGAU; antisense; sugars from the 5' end m5 d10 m5, all phosphorothioate, methylation of C not given here) [[CDKN2B-AS1]1415]”, 58.18%. For the substance “mG*mU*mG*mU*mU*T*T*T*A*A*T*T*T*T*G*mU*mA*mG*mA*mG (mG*mU*mG*mU*mU*dT*dT*dT*dA*dA*dT*dT*dT*dT*dG*mU*mA*mG*mA*mG) [[CDKN2B-AS1]611]”, the “cGAS-100 nM: averaged IP-10 levels relative to ISD70” value is listed as 66.24%. In the case of “mU*mA*mU*mU*mU*C*C*A*C*A*T*G*C*C*C*mA*mG*mU*mG*mU (mU*mA*mU*mU*mU*dC*dC*dA*dC*dA*dT*dG*dC*dC*dC*mA*mG*mU*mG*mU; antisense) [[CDKN2B-AS1]627]”, the “cGAS-100 nM: averaged IP-10 levels relative to ISD70” value was determined as 80.99%.

Staying with this data set, now noted: THP-1; 2′OMe or PS oligos, 100-250 nM, pre-treatment as in figure legends; ISD70 2.5 μg/ml.
As to “mG*mC*mA*mG*mU*C*T*C*C*A*T*G*T*C*C*mC*mA*mG*mG*mC (GCAGUCTCCATGTCCCAGGC; antisense; sugars from the 5' end m5 d10 m5, all phosphorothioate, methylation of C not given here) [[CDKN2B-AS1]2234]”, the “inhibition of ISD70-driven IP-10 production (in words)” value is on record as “robustly inhibited ISD70-dependent IP-10 production”.
